Molecular target: cAMP-dependent protein kinase (PKA) (Homo sapiens) (UniProt P22694+P17612+P22612)
Test: In vitro inhibitory activity against Protein Kinase A at a concentration of 10 uM
Format: protein assay

Row | SMILES | inhibition
1 | COC(=O)c1cc(C(=O)c2cc(NC(=O)CCn3c4ccccc4c4c5c(c6c7ccccc7[nH]c6c43)C(=O)NC5)cn2C)cn1C | 43%
2 | COC(=O)c1cc(C(=O)c2cc(C(=O)c3cc(NC(=O)CCn4c5ccccc5c5c6c(c7c8ccccc8[nH]c7c54)C(=O)NC6)cn3C)cn2C)cn1C | 40%
3 | COC(=O)c1cc(NC(=O)CCn2c3ccccc3c3c4c(c5c6ccccc6[nH]c5c32)C(=O)NC4)cn1C | 40%

Continued, values first:

Row | inhibition | SMILES
4 | 49% | O=C(CCn1c2ccccc2c2c3c(c4c5ccccc5[nH]c4c21)C(=O)NC3)NCCN1CCOCC1
5 | 41% | O=C(CCn1c2ccccc2c2c3c(c4c5ccccc5[nH]c4c21)C(=O)NC3)NCC1CCOC1 (stereo not drawn)
6 | 25% | CN1CCCC1CCNC(=O)CCn1c2ccccc2c2c3c(c4c5ccccc5[nH]c4c21)C(=O)NC3 (stereo not drawn)
7 | 41% | CN(C)CCCNC(=O)CCn1c2ccccc2c2c3c(c4c5ccccc5[nH]c4c21)C(=O)NC3
8 | 42% | O=C(CCn1c2ccccc2c2c3c(c4c5ccccc5[nH]c4c21)C(=O)NC3)NCCN1CCCCC1

— ChEMBL document CHEMBL1128087, “Novel substituted indolocarbazoles as potent and selective inhibitors of protein kinase C” (Bioorg Med Chem Lett, 1995)
